In article PMC8878317, “Chemogenomics identifies acetyl-coenzyme A synthetase as a target for malaria treatment and prevention” (Cell Chemical Biology, 2022):
Like-named read-outs stand apart in the source and are kept apart here.

Tested on: P. falciparum MMV019721-resistant lines (3D7-A10 or Dd2-B2 derived)
Test: Dose-response assay of MMV019721-selected resistant lines (bulk cultures and clones)
Type: cell-based
Conditions: Plasmodium falciparum
Experimental: For in vitro–selected lines, drug susceptibility was measured by SYBR Green I–based assay ([Johnson et al., 2007]; [Smilkstein et al., 2004]). Ring-stage parasites were cultured for 72 hr at 1% hematocrit and 1% starting parasitemia in 384-well black clear-bottom plates containing test compounds plated in triplicate in 12-point serial dilutions. Lysis buffer (0.16% w/v saponin, 1.6% Triton X-100, 5 mM EDTA, and 20 mM Tris-HCl, pH 7.4) with SYBR Green I fluorescent dye (Invitrogen) was added, and fluorescence readings were taken (excitation at 494 nm, emission at 530 nm). Alternatively, Dd2-B2 ring-stage cultures at 0.3% parasitemia and 1% hematocrit were exposed for 72 hr to a range of ten drug concentrations that were 2-fold serially diluted in duplicates along with drug-free controls. Parasite survival was assessed by flow cytometry on an Accuri C6 (BD Biosciences) using SYBR Green and MitoTracker Deep Red FM (Life Technologies) as nucleic acid stain and vital dyes respectively. EC50 values were calculated using a nonlinear regression curve fit in Prism Software version 8 (GraphPad).
Bulk cultures were tested for reduced drug susceptibility and individual clones were isolated by limiting dilution.

## CCN(CC)S(=O)(=O)c1ccc(Cl)c(C(=O)Nc2ccc3nc(C)sc3c2)c1 [MMV019721]
MDR1, read-out: MMV019721 mean EC50 (nM) ± SD (n), selection 9, Dd2-B2, clone B3, AcAS CNV, MDR1 CNV, AP2-I CNV
  EC50: 1400 ± 200 nM
read-out: MMV019721 mean EC50 (nM) ± SD (n), selection 1, Dd2-B2, clone E4, AcAS:A597V
  EC50: 7700 ± 570 nM
read-out: MMV019721 mean EC50 (nM) ± SD (n), selection 2, Dd2-B2, clone E10, AcAS:A597V
  EC50: 9200 ± 810 nM
read-out: MMV019721 mean EC50 (nM) ± SD (n), selection 2, Dd2-B2, clone F12, AcAS:A597V, n=1
  EC50: 8400 nM
read-out: MMV019721 mean EC50 (nM) ± SD (n), selection 3, Dd2-B2, clone F2, AcAS:A597V
  EC50: 9000 ± 490 nM
read-out: MMV019721 mean EC50 (nM) ± SD (n), selection 3, Dd2-B2, clone F10, AcAS:A597V
  EC50: 11000 ± 1300 nM
read-out: MMV019721 mean EC50 (nM) ± SD (n), selection 4, 3D7-A10, Bulk, sequencing not determined
  EC50: 460 ± 100 nM
read-out: MMV019721 mean EC50 (nM) ± SD (n), selection 5, 3D7-A10, clone 2B1C, AcAS:T648M
  EC50: 7700 ± 1200 nM
read-out: MMV019721 mean EC50 (nM) ± SD (n), selection 5, 3D7-A10, clone 2B1F, AcAS:T648M
  EC50: 7500 ± 1400 nM
read-out: MMV019721 mean EC50 (nM) ± SD (n), selection 5, 3D7-A10, clone 2B12B, AcAS:T648M
  EC50: 7400 ± 500 nM
read-out: MMV019721 mean EC50 (nM) ± SD (n), selection 6, 3D7-A10, clone 3B1D, AcAS:T648M
  EC50: 7100 ± 1700 nM
read-out: MMV019721 mean EC50 (nM) ± SD (n), selection 6, 3D7-A10, clone 3B6H, AcAS:T648M
  EC50: 6800 ± 420 nM
read-out: MMV019721 mean EC50 (nM) ± SD (n), selection 6, 3D7-A10, clone 3B11G, AcAS:T648M
  EC50: 6800 ± 1100 nM
read-out: MMV019721 mean EC50 (nM) ± SD (n), selection 7, 3D7-A10, clone 4B3D, AcAS:T648M
  EC50: 7700 ± 1700 nM
read-out: MMV019721 mean EC50 (nM) ± SD (n), selection 7, 3D7-A10, clone 4B4H, AcAS:T648M
  EC50: 8400 ± 680 nM
read-out: MMV019721 mean EC50 (nM) ± SD (n), selection 7, 3D7-A10, clone 4B8B, AcAS:T648M
  EC50: 7500 ± 1100 nM
read-out: MMV019721 mean EC50 (nM) ± SD (n), selection 8, Dd2-B2, clone A3, AcAS CNV, AP2-I CNV
  EC50: 1400 ± 90 nM
read-out: MMV019721 mean EC50 (nM) ± SD (n), selection 10, Dd2-B2, clone C3, ACS11 INDEL(Leu24-Asp30), AP2-I CNV
  EC50: 2000 ± 170 nM
read-out: MMV019721 mean EC50 (nM) ± SD (n), selection 11, 3D7-A10, clone 1E9, sequencing not determined
  EC50: 3000 ± 250 nM
read-out: MMV019721 mean EC50 (nM) ± SD (n), selection 11, 3D7-A10, clone 1E12, AcAS: Ala652Thr
  EC50: 2700 ± 270 nM
read-out: MMV019721 mean EC50 (nM) ± SD (n), selection 11, 3D7-A10, clone 1G4, sequencing not determined
  EC50: 2000 ± 600 nM
read-out: MMV019721 mean EC50 (nM) ± SD (n), selection 11, 3D7-A10, clone 1G8, ACS11:Thr767Ile
  EC50: 1700 ± 340 nM
read-out: MMV019721 mean EC50 (nM) ± SD (n), selection 12, 3D7-A10, clone 2B4, AcAS:T648M
  EC50: 8500 ± 840 nM
read-out: MMV019721 mean EC50 (nM) ± SD (n), selection 12, 3D7-A10, clone 2C6, sequencing not determined
  EC50: 2200 ± 770 nM
read-out: MMV019721 mean EC50 (nM) ± SD (n), selection 12, 3D7-A10, clone 2D11, sequencing not determined
  EC50: 7100 ± 1300 nM
read-out: MMV019721 mean EC50 (nM) ± SD (n), selection 12, 3D7-A10, clone 2G6, AcAS: Ala652Thr
  EC50: 4000 ± 630 nM
read-out: MMV019721 mean EC50 (nM) ± SD (n), selection 13, 3D7-A10, clone 3B9, sequencing not determined
  EC50: 2300 ± 680 nM
read-out: MMV019721 mean EC50 (nM) ± SD (n), selection 13, 3D7-A10, clone 3C7, sequencing not determined
  EC50: 2300 ± 530 nM
read-out: MMV019721 mean EC50 (nM) ± SD (n), selection 13, 3D7-A10, clone 3D10, ACS11: Asp269Gly
  EC50: 1500 ± 82 nM
read-out: MMV019721 mean EC50 (nM) ± SD (n), selection 13, 3D7-A10, clone 3G8, ACS11: Ser74Leu
  EC50: 2200 ± 570 nM
read-out: PfAcAS:A597V-resistant clone EC50, range over A597V clones
  EC50: 7700 to 11000 nM
read-out: PfAcAS:T648M EC50, range over T648M clones
  EC50: 6800 to 8400 nM
